How the values were obtained:
BRD4 (BDII_E352-M457) = BRD4 (BDII_E352-M457) (Homo sapiens (Human), UniProt O60885); test: TR-FRET bromodomain binding assay, BRD4 second bromodomain; conditions: His-tagged BD2, Alexa647-labeled probe 30 nM
Description: (§1) A time-resolved fluorescence resonance energy transfer (TR-FRET) assay was used to determine the affinities of compounds of the Examples listed in Table 1 for each bromodomain of BRD4. His-tagged first (BD1: amino acids K57-E168) and second (BD2: amino acids E352-E168) bromodomains of BRD4 were expressed and purified. An Alexa647-labeled BET-inhibitor was used as the fluorescent probe in the assay.
(§2) Compound dilution series were prepared in DMSO via a 3-fold serial dilution from 2.5 mM to 42 nM. Compounds were then diluted 6:100 in assay buffer (20 mM Sodium Phosphate, pH 6.0, 50 mM NaCl, 1 mM Ethylenediaminetetraacetic acid disodium salt dihydrate, 0.01% Triton X-100, 1 mM DL-Dithiothreitol) to yield 3× working solutions. Six microliters (μL) of the working solution was then transferred to white, low-volume assay plates (Costar #3673). A 1.5× assay mixture containing His-tagged bromodomain, Europium-conjugated anti-His antibody (Invitrogen PV5596) and the Alexa-647-conjugated probe molecule was also prepared. Twelve μL of this solution were added to the assay plate to reach a final volume of 18 μL. The final concentration of 1× assay buffer contains 2% DMSO, 50 μM-0.85 nM compound, 8 nM His-tagged bromodomain, 1 nM Europium-conjugated anti-His-tag antibody and 100 nM or 30 nM probe (for BDI or BDII, respectively). After a one-hour incubation at room temperature, TR-FRET ratios were determined using an Envision multilabel plate reader (Ex 340, Em […]).
(§3) TR-FRET data were normalized to the means of 24 no-compound controls (“high”) and 8 controls containing 1 μM un-labeled probe (“low”). Percent inhibition was plotted as a function of compound concentration and the data were fit with the 4 parameter logistic equation to obtain IC50s. Inhibition constants (Ki) were calculated from the IC50s, probe Kd and probe concentration. Typical Z′ values were between 0.65 and 0.75. The minimum significant ratio was determined to evaluate assay reproducibility (Eastwood et al., (2006) J Biomol Screen, 11: 253-261). The MSR was determined to be 2.03 for BDI and 1.93 for BDII, and a moving MSR (last six run MSR overtime) for both BDI and BDII was typically <3.

BRD4 (BDI_K57-E168) = BRD4 (BDI_K57-E168) (Homo sapiens (Human), UniProt O60885); test: TR-FRET bromodomain binding assay, BRD4 first bromodomain; conditions: His-tagged BD1, Alexa647-labeled probe 100 nM
Description: as §1, §2, §3

Row | Structure (SMILES) | Ki (BRD4 (BDII_E352-M457)) | Ki (BRD4 (BDI_K57-E168))
1 | Cn1cc(-c2cc(S(C)(=O)=O)ccc2Oc2cccc(C(=O)NCCCN3CCCC3=O)c2)c2cc[nH]c2c1=O [Example 27, 3-[2-(6-methyl-7-oxo-6,7-dihydro-1H-pyrrolo[2,3-c]pyridin-4-yl)-4-(methylsulfonyl)phenoxy]-N-[3-(2-oxopyrrolidin-1-yl)propyl]benzamide] | 11 nM | 26 nM
2 | Cn1cc(-c2cc(S(C)(=O)=O)ccc2Oc2cccc(C(=O)N3CCN(C4CCCC4)CC3)c2)c2cc[nH]c2c1=O [Example 28, 4-[2-{3-[(4-cyclopentylpiperazin-1-yl)carbonyl]phenoxy}-5-(methylsulfonyl)phenyl]-6-methyl-1,6-dihydro-7H-pyrrolo[2,3-c]pyridin-7-one] | 11 nM | 13 nM
3 | CN(C)CCN1CCN(C(=O)c2cccc(Oc3ccc(S(C)(=O)=O)cc3-c3cn(C)c(=O)c4[nH]ccc34)c2)CC1 [Example 29, 4-{2-[3-({4-[2-(dimethylamino)ethyl]piperazin-1-yl}carbonyl)phenoxy]-5-(methylsulfonyl)phenyl}-6-methyl-1,6-dihydro-7H-pyrrolo[2,3-c]pyridin-7-one] | 9.1 nM | 19 nM
4 | CC(=O)N1CCN(C(=O)c2cccc(Oc3ccc(S(C)(=O)=O)cc3-c3cn(C)c(=O)c4[nH]ccc34)c2)CC1 [Example 30, 4-[2-{3-[(4-acetylpiperazin-1-yl)carbonyl]phenoxy}-5-(methylsulfonyl)phenyl]-6-methyl-1,6-dihydro-7H-pyrrolo[2,3-c]pyridin-7-one] | 17 nM | 28 nM
5 | Cn1cc(-c2cc(S(C)(=O)=O)ccc2Oc2cccc(C(=O)N3CCC(C(F)(F)F)CC3)c2)c2cc[nH]c2c1=O [Example 31, 6-methyl-4-[5-(methylsulfonyl)-2-(3-{[4-(trifluoromethyl)piperidin-1-yl]carbonyl}phenoxy)phenyl]-1,6-dihydro-7H-pyrrolo[2,3-c]pyridin-7-one] | 11 nM | 21 nM
6 | CN(CC#N)C(=O)c1cccc(Oc2ccc(S(C)(=O)=O)cc2-c2cn(C)c(=O)c3[nH]ccc23)c1 [Example 32, N-(cyanomethyl)-N-methyl-3-[2-(6-methyl-7-oxo-6,7-dihydro-1H-pyrrolo[2,3-c]pyridin-4-yl)-4-(methylsulfonyl)phenoxy]benzamide] | 10 nM | 21 nM
7 | Cn1cc(-c2cc(S(C)(=O)=O)ccc2Oc2cccc(C(=O)NC[C@H]3CCCO3)c2)c2cc[nH]c2c1=O [Example 34, 3-[2-(6-methyl-7-oxo-6,7-dihydro-1H-pyrrolo[2,3-c]pyridin-4-yl)-4-(methylsulfonyl)phenoxy]-N-[(2R)-tetrahydrofuran-2-ylmethyl]benzamide] | 3.6 nM | 15 nM
8 | Cn1cc(-c2cc(S(C)(=O)=O)ccc2Oc2cccc(C(=O)NCc3cc(F)cc(F)c3)c2)c2cc[nH]c2c1=O [Example 36, N-(3,5-difluorobenzyl)-3-[2-(6-methyl-7-oxo-6,7-dihydro-1H-pyrrolo[2,3-c]pyridin-4-yl)-4-(methylsulfonyl)phenoxy]benzamide] | 5.7 nM | 14 nM
9 | Cn1cc(-c2cc(S(C)(=O)=O)ccc2Oc2cccc(C(=O)NCc3ccc(F)cc3F)c2)c2cc[nH]c2c1=O [Example 37, N-(2,4-difluorobenzyl)-3-[2-(6-methyl-7-oxo-6,7-dihydro-1H-pyrrolo[2,3-c]pyridin-4-yl)-4-(methylsulfonyl)phenoxy]benzamide] | 6 nM | 18 nM
10 | Cn1cc(-c2cc(S(C)(=O)=O)ccc2Oc2cccc(NS(=O)(=O)c3ccc(F)cc3)c2)c2cc[nH]c2c1=O [Example 41, 4-fluoro-N-{3-[2-(6-methyl-7-oxo-6,7-dihydro-1H-pyrrolo[2,3-c]pyridin-4-yl)-4-(methylsulfonyl)phenoxy]phenyl}benzenesulfonamide] | 5.1 nM | 11 nM
11 | COc1cccc(S(=O)(=O)Nc2cccc(Oc3ccc(S(C)(=O)=O)cc3-c3cn(C)c(=O)c4[nH]ccc34)c2)c1 [Example 42, 3-methoxy-N-{3-[2-(6-methyl-7-oxo-6,7-dihydro-1H-pyrrolo[2,3-c]pyridin-4-yl)-4-(methylsulfonyl)phenoxy]phenyl}benzenesulfonamide] | 3.5 nM | 9.1 nM

Now those with a lower Ki (BRD4 (BDII_E352-M457)), led by results:

Row | Ki (BRD4 (BDII_E352-M457)) | Ki (BRD4 (BDI_K57-E168)) | Structure (SMILES)
12 | 3.1 nM | 8.1 nM | CN(C)CCNC(=O)c1cccc(Oc2ccc(S(C)(=O)=O)cc2-c2cn(C)c(=O)c3[nH]ccc23)c1 [Example 33, N-[2-(dimethylamino)ethyl]-3-[2-(6-methyl-7-oxo-6,7-dihydro-1H-pyrrolo[2,3-c]pyridin-4-yl)-4-(methylsulfonyl)phenoxy]benzamide]
13 | 1.9 nM | 3.1 nM | Cn1cc(-c2cc(S(C)(=O)=O)ccc2Oc2cccc(C(=O)NCCN3CCCC3)c2)c2cc[nH]c2c1=O [Example 35, 3-[2-(6-methyl-7-oxo-6,7-dihydro-1H-pyrrolo[2,3-c]pyridin-4-yl)-4-(methylsulfonyl)phenoxy]-N-[2-(pyrrolidin-1-yl)ethyl]benzamide]
14 | 1.9 nM | 5.1 nM | Cn1cc(-c2cc(S(C)(=O)=O)ccc2Oc2cccc(NS(=O)(=O)Cc3ccccc3)c2)c2cc[nH]c2c1=O [Example 38, N-{3-[2-(6-methyl-7-oxo-6,7-dihydro-1H-pyrrolo[2,3-c]pyridin-4-yl)-4-(methylsulfonyl)phenoxy]phenyl}-1-phenylmethanesulfonamide]
15 | 2.1 nM | 4.6 nM | COc1ccc(S(=O)(=O)Nc2cccc(Oc3ccc(S(C)(=O)=O)cc3-c3cn(C)c(=O)c4[nH]ccc34)c2)cc1 [Example 39, 4-methoxy-N-{3-[2-(6-methyl-7-oxo-6,7-dihydro-1H-pyrrolo[2,3-c]pyridin-4-yl)-4-(methylsulfonyl)phenoxy]phenyl}benzenesulfonamide]
16 | 2 nM | 5.4 nM | Cn1cc(-c2cc(S(C)(=O)=O)ccc2Oc2cccc(NS(=O)(=O)c3cccc(F)c3)c2)c2cc[nH]c2c1=O [Example 40, 3-fluoro-N-{3-[2-(6-methyl-7-oxo-6,7-dihydro-1H-pyrrolo[2,3-c]pyridin-4-yl)-4-(methylsulfonyl)phenoxy]phenyl}benzenesulfonamide]
17 | 3 nM | 5 nM | Cn1cc(-c2cc(S(C)(=O)=O)ccc2Oc2cccc(NS(=O)(=O)c3ccc([N+](=O)[O-])cc3)c2)c2cc[nH]c2c1=O [Example 43, N-{3-[2-(6-methyl-7-oxo-6,7-dihydro-1H-pyrrolo[2,3-c]pyridin-4-yl)-4-(methylsulfonyl)phenoxy]phenyl}-4-nitrobenzenesulfonamide]
18 | 2.1 nM | 4.9 nM | CC(=O)c1ccc(S(=O)(=O)Nc2cccc(Oc3ccc(S(C)(=O)=O)cc3-c3cn(C)c(=O)c4[nH]ccc34)c2)cc1 [Example 44, 4-acetyl-N-{3-[2-(6-methyl-7-oxo-6,7-dihydro-1H-pyrrolo[2,3-c]pyridin-4-yl)-4-(methylsulfonyl)phenoxy]phenyl}benzenesulfonamide]
19 | 3.3 nM | 16 nM | CN(C)c1cccc2c(S(=O)(=O)Nc3cccc(Oc4ccc(S(C)(=O)=O)cc4-c4cn(C)c(=O)c5[nH]ccc45)c3)cccc12 [Example 45, 5-(dimethylamino)-N-{3-[2-(6-methyl-7-oxo-6,7-dihydro-1H-pyrrolo[2,3-c]pyridin-4-yl)-4-(methylsulfonyl)phenoxy]phenyl}naphthalene-1-sulfonamide]
20 | 1.8 nM | 10 nM | CC(C)c1ccc(S(=O)(=O)Nc2cccc(Oc3ccc(S(C)(=O)=O)cc3-c3cn(C)c(=O)c4[nH]ccc34)c2)cc1 [Example 46, N-{3-[2-(6-methyl-7-oxo-6,7-dihydro-1H-pyrrolo[2,3-c]pyridin-4-yl)-4-(methylsulfonyl)phenoxy]phenyl}-4-(propan-2-yl)benzenesulfonamide]
21 | 2.7 nM | 5.9 nM | Cn1cc(-c2cc(S(C)(=O)=O)ccc2Oc2cccc(NS(=O)(=O)c3ccc(F)cc3F)c2)c2cc[nH]c2c1=O [Example 47, 2,4-difluoro-N-{3-[2-(6-methyl-7-oxo-6,7-dihydro-1H-pyrrolo[2,3-c]pyridin-4-yl)-4-(methylsulfonyl)phenoxy]phenyl}benzenesulfonamide]
22 | 2.4 nM | 7.8 nM | Cn1cc(-c2cc(S(C)(=O)=O)ccc2Oc2cccc(NS(=O)(=O)c3cccc(OC(F)F)c3)c2)c2cc[nH]c2c1=O [Example 48, 3-(difluoromethoxy)-N-{3-[2-(6-methyl-7-oxo-6,7-dihydro-1H-pyrrolo[2,3-c]pyridin-4-yl)-4-(methylsulfonyl)phenoxy]phenyl}benzenesulfonamide]
